Measured values published in PubChem BioAssay AID1963986 (Molecular Pharmacology Branch, DTP, NCI, 2024).

Test system: 171881-019-R-J1-PDC tumor spheroid viability
Experiment: Anticancer human tumor 171881-019-R-J1-PDC patient-derived invasive breast carcinoma cell line growth inhibition [PI3K]
Settings: spheroids with HUVEC and MSC; for IC50: curve of first compound; for viability, T/C: stronger effect = lower value; active = viability on the fitted dose curve at most 10% of control; inactive = the rest
From the text: Combinatorial screen of targeted agents with the PI3K inhibitors inavolisib, alpelisib, duvelisib, and copanlisib in multi-cell type tumor spheroids
A high-throughput screen of multi-cell type tumor spheroids was designed to identify active combinations of targeted small molecules and PI3K pathway inhibitors. Complex spheroids include a stromal component modeled by human endothelial cells (HUVEC) and fibroblasts modeled by human mesenchymal stem cells (MSCs). The concentration ranges selected for each drug and investigational agent were based upon clinically achievable concentrations if the clinical Cmax of the agent was known.
Compounds. The drugs and investigational agents: inavolisib (NSC800729), alpelisib (NSC765974), duvelisib (NSC772469), copanlisib (NSC816437), ipatasertib (NSC767898), afuresertib (NSC778305), talazoparib (NSC767125), sapanisertib (NSC764658), selumetinib (NSC741078), tovorafenib (DAY101, NSC766906), vemurafenib (NSC761431), ravoxertinib (NSC781343), sotorasib (NSC818433), MRTX1133 (NSC 836407), abemaciclib (NSC 768073), palbociclib (NSC758247), venetoclax (NSC 766270), SY5609 (NSC837396), enzalutamide (NSC755605), and darolutamide (NSC825331), were obtained from the National Cancer Institute (NCI) Developmental Therapeutics Program Chemical Repository. The FDA-approved anticancer drug set is available from the NCI Developmental Therapeutics Program. […] The stock solutions were prepared in dimethyl sulfoxide (DMSO, Sigma-Aldrich, St. Louis, MO, cat. D2650) at 800-fold the tested concentration and stored at -70 degrees C prior to their use. All drugs and investigational agents were tested over a range starting from a high concentration at or near the clinical Cmax and decreasing in half-log increments. If the clinical Cmax for an agent had not been determined, the highest concentration tested was 10 microM.
Cell Culture. All cells were maintained in an incubator at 37 degrees C and 5% CO2 with 95% humidity. The PDC lines were cultured according to standard operating procedures established by the NCI PDMR (https://pdmr.cancer.gov/sops/default.htm). All PDCs were thawed and cultured in Matrigel-coated flasks prepared with a working solution of 1X Ham's F-12 nutrient mix, without supplementation (Invitrogen, Waltham, MA, cat. 11765054), 100 U/mL penicillin-streptomycin (Invitrogen, cat. 15140122), and 2.5% Matrigel (Corning Inc., Corning, NY, cat. 354248) for the first three passages. The 354836-022-R-J1-PDC, 475296-252-R-J1-PDC, and 997726-040-R-J2-PDC lines were cultured in 6A media, which includes advanced DMEM/F-12 (Thermo Fisher Scientific, cat. 12634028), 10 mM HEPES (Thermo Fisher Scientific, cat. 15630080), 1X GlutaMAX supplement (Thermo Fisher Scientific, cat. 35050061), 0.1 mg/mL primocin (InvivoGen, San Diego, CA, cat. ant-pm-2), 10% defined fetal bovine serum, heat inactivated (HyClone Laboratories Inc., Logan, UT, cat. SH30070.03HI), 50% L-WRN conditioned media (ATCC, cat. CRL-3276), 1.25 mM N-Acetyl-L-cysteine (Sigma-Aldrich, cat. A9165), 10 mM nicotinamide (Sigma-Aldrich, cat. N0636), 1X B-27 supplement (Thermo Fisher Scientific, cat. 17504044), 1X N-2 supplement (Thermo Fisher Scientific, cat. 17502048), and 10 microM Y-27632 dihydrochloride (Tocris Bioscience, Bristol, United Kingdom, cat. 1254). The 624824-186-R-J2-PDC line was cultured in 6C/Colon 1B media, which includes all 6A media components plus 50 ng/mL human EGF recombinant protein (Thermo Fisher Scientific, cat. PHG0311). […]

[1] = second compound 0.00316 µM, first compound 0.0316 µM
[2] = second compound 0.00316 µM, first compound 0.1 µM
[3] = second compound 0.00316 µM, first compound 0.316 µM
[4] = second compound 0.00316 µM, first compound 1 µM
[5] = second compound 0.00316 µM, first compound 3.16 µM
[6] = second compound 0.00316 µM, first compound 10 µM
[7] = second compound 0.01 µM, first compound 0.0316 µM
[8] = second compound 0.01 µM, first compound 0.1 µM
[9] = second compound 0.01 µM, first compound 0.316 µM
[10] = second compound 0.01 µM, first compound 1 µM
[11] = second compound 0.01 µM, first compound 3.16 µM
[12] = second compound 0.01 µM, first compound 10 µM
[13] = second compound 0.0316 µM, first compound 0.0316 µM
[14] = second compound 0.0316 µM, first compound 0.1 µM
[15] = second compound 0.0316 µM, first compound 0.316 µM
[16] = second compound 0.0316 µM, first compound 1 µM
[17] = second compound 0.0316 µM, first compound 3.16 µM
[18] = second compound 0.0316 µM, first compound 10 µM
[19] = second compound 0.1 µM, first compound 0.0316 µM
[20] = second compound 0.1 µM, first compound 0.1 µM
[21] = second compound 0.1 µM, first compound 0.316 µM
[22] = second compound 0.1 µM, first compound 1 µM
[23] = second compound 0.1 µM, first compound 3.16 µM
[24] = second compound 0.1 µM, first compound 10 µM
[25] = second compound 0.316 µM, first compound 0.0316 µM
[26] = second compound 0.316 µM, first compound 0.1 µM
[27] = second compound 0.316 µM, first compound 0.316 µM
[28] = second compound 0.316 µM, first compound 1 µM
[29] = second compound 0.316 µM, first compound 3.16 µM
[30] = second compound 0.316 µM, first compound 10 µM
[31] = second compound 1 µM, first compound 0.0316 µM
[32] = second compound 1 µM, first compound 0.1 µM
[33] = second compound 1 µM, first compound 0.316 µM
[34] = second compound 1 µM, first compound 1 µM
[35] = second compound 1 µM, first compound 3.16 µM
[36] = second compound 1 µM, first compound 10 µM
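Also: spheroids exposed to compound for 7 days before viability read.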
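For viability, T/C in this document: 100% = DMSO vehicle-treated spheroids.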

CC1(C)CCC(CN2CCN(c3ccc(C(=O)NS(=O)(=O)c4ccc(NCC5CCOCC5)c([N+](=O)[O-])c4)c(Oc4cnc5[nH]ccc5c4)c3)CC2)=C(c2ccc(Cl)cc2)C1 + CC(Nc1ccc2c(c1)OCCn1cc(N3C(=O)OCC3C(F)F)nc1-2)C(N)=O
3730 nM: IC50 (second compound 0.00316 µM)
2720 nM: IC50 (second compound 0.01 µM)
< 31.6 nM: IC50 (second compound 0.1 µM) | IC50 (second compound 0.316 µM) | IC50 (second compound 1 µM)
inactive: viability, T/C [1] 83% | viability, T/C [2] 73.7% | viability, T/C [3] 91.5% | viability, T/C [4] 88.1% | viability, T/C [5] 55.9% | viability, T/C [6] 15% | viability, T/C [7] 79.2% | viability, T/C [8] 87.3% | viability, T/C [9] 76.8% | viability, T/C [10] 72.5% | viability, T/C [11] 46.5% | viability, T/C [12] 13.9% | viability, T/C [13] 55.9% | viability, T/C [14] 56.8% | viability, T/C [15] 61.6% | viability, T/C [16] 55.3% | viability, T/C [17] 41.2% | viability, T/C [18] 10.3% | viability, T/C [19] 41.6% | viability, T/C [20] 41.2% | viability, T/C [21] 40.6% | viability, T/C [22] 43.4% | viability, T/C [23] 36.5% | viability, T/C [24] 7.86% | viability, T/C [25] 28.6% | viability, T/C [26] 27.1% | viability, T/C [27] 28.5% | viability, T/C [28] 28.3% | viability, T/C [29] 29.5% | viability, T/C [30] 5% | viability, T/C [31] 20.9% | viability, T/C [32] 20.9% | viability, T/C [33] 22% | viability, T/C [34] 23.4% | viability, T/C [35] 22% | viability, T/C [36] 6.08%
1590 nM: IC50 (second compound 0.0316 µM)

C[C@@H](NC(=O)c1ncnc(N)c1Cl)c1ncc(C(=O)Nc2cc(C(F)(F)F)c(Cl)cn2)s1 + CC(Nc1ccc2c(c1)OCCn1cc(N3C(=O)OCC3C(F)F)nc1-2)C(N)=O
399 nM: IC50 (second compound 0.0316 µM)
5950 nM: IC50 (second compound 0.00316 µM)
2620 nM: IC50 (second compound 0.01 µM)
active: viability, T/C [30] 6.3% | viability, T/C [35] 9.28% | viability, T/C [36] 3.79%
< 31.6 nM: IC50 (second compound 0.1 µM) | IC50 (second compound 0.316 µM) | IC50 (second compound 1 µM)
inactive: viability, T/C [1] 71.3% | viability, T/C [2] 88.5% | viability, T/C [3] 84.2% | viability, T/C [4] 80.4% | viability, T/C [5] 63.7% | viability, T/C [6] 38.8% | viability, T/C [7] 80.3% | viability, T/C [8] 78.5% | viability, T/C [9] 65.8% | viability, T/C [10] 70.3% | viability, T/C [11] 44.4% | viability, T/C [12] 27.4% | viability, T/C [13] 51.4% | viability, T/C [14] 53.9% | viability, T/C [15] 49.5% | viability, T/C [16] 46.5% | viability, T/C [17] 31.1% | viability, T/C [18] 17.1% | viability, T/C [19] 38.9% | viability, T/C [20] 35.7% | viability, T/C [21] 33.8% | viability, T/C [22] 31.6% | viability, T/C [23] 20.1% | viability, T/C [24] 10.7% | viability, T/C [25] 27% | viability, T/C [26] 24.5% | viability, T/C [27] 24.9% | viability, T/C [28] 23% | viability, T/C [29] 13.5% | viability, T/C [31] 20.7% | viability, T/C [32] 20.9% | viability, T/C [33] 19.3% | viability, T/C [34] 16.4%
